Kd data for 6 molecules are collected here from ChEMBL document CHEMBL1828523, “Synthesis and stereospecificity of 4,5-disubstituted oxazolidinone ligands binding to T-box riboswitch RNA” (J Med Chem, 2011).

Each structure is given as a SMILES string.

The target in one assay is Nucleic Acid. The assay can be described thus: Binding affinity to Bacillus subtilis antiterminator AM1A RNA model after 130 mins by FRET assay. It is filed as nucleic-acid assay.
Turning to `O=C(Cc1ccccc1)OC[C@H]1OC(=O)N[C@H]1CN1CCN(c2ccccc2)CC1` (racemic), the Kd was greater than 100 µM.
`CC(=O)c1ccc(NC(=O)OC[C@@H]2OC(=O)N[C@H]2CN2CCN(c3ccccc3)CC2)cc1`: the Kd was determined as 1.6 µM.
In turn, `O=C(Cc1ccccc1)OC[C@@H]1OC(=O)N[C@H]1CN1CCN(c2ccccc2)CC1` had a dissociation constant Kd of 16 µM.
On the same count and under the same terms, in the case of `CC(=O)c1ccc(NC(=O)OC[C@H]2OC(=O)N[C@@H]2CN2CCN(c3ccccc3)CC2)cc1` it was 3 µM; in that of `CC(=O)c1ccc(NC(=O)OC[C@H]2OC(=O)N[C@H]2CN2CCN(c3ccccc3)CC2)cc1` (racemic), 1.8 µM.
`O=C(Cc1ccccc1)OC[C@H]1OC(=O)N[C@@H]1CN1CCN(c2ccccc2)CC1` came in with a Kd of 12 µM.

In a further assay the target is Nucleic Acid. Briefly: Binding affinity to Bacillus subtilis antiterminator AM1A RNA model after 70 mins by FRET assay. It is filed as nucleic-acid assay.
`O=C(Cc1ccccc1)OC[C@H]1OC(=O)N[C@H]1CN1CCN(c2ccccc2)CC1` (racemic) came in with a dissociation constant (Kd) of 5.1 µM.

What is called Kd is the constant that tells how readily two partners part at equilibrium.
